Entries after “also recorded” stand apart in the source; their conditions may differ.
Assays:
C57BL/6N mice [1] = assay: Open field after bilateral NPS injection into CA1 of the VH; assay type: in vivo, mouse; conditions: 0.1 nmol NPS each side into CA1 of VH, 30 min
Protocol: (§1) Animals were fixed in a stereotactic frame and maintained under isoflurane anesthesia (Forene® 100%, V/V; induction: 2.5%; maintenance: 1.5%; in O2; flow rate: 1 L/min). The mice received acute analgesic treatment with Metacam s.c. during surgery (0.5 mg/kg; in NaCl). 23 gauge stainless-steel guide cannulas were implanted in the CA1 region of the VH at the following coordinates: 3.1 mm posterior, ±3 mm lateral from bregma, and 2 mm ventral from the skull surface (Franklin and Paxinos, 2007). The guide cannulas were fixed with two screws and a two-component adhesive. For behavioural experiments, animals were implanted bilaterally for later bilateral injection, whereas for Cy3-NPS injections, implantation was performed unilaterally. The animals were allowed to recover for at least 6 days before starting the behavioural experiments. Substance infusions were carried out manually, on mice anesthetised by brief inhalation of isoflurane, using a 30 gauge injection cannula connected to a Tygon tube and a 10 μL Hamilton syringe. […]
(§2) Mice were injected bilaterally either with 0.1 nmol NPS in 0.5 μL ACSF for each side or with 0.5 μL of ACSF for each side. […] Animal behaviour was videotaped and relevant parameters were analysed using the tracking software ANY-maze version 4.30 (Stoelting, Wood Dale, Ill., USA). […]

Bl6 and HAB mice [2] = assay: Elevated plus maze (EPM) after intranasal NPS; assay type: in vivo, mouse
Protocol: (§3) Behavioural tests (open field, dark-light test and elevated plus maze (EPM)) following intranasal NPS application were performed sequentially. Each test lasted for 5 min with an inter-test interval of 5 min, as described previously (Bunck et al., 2009; Krömer et al., 2005). The animals' behaviour during testing was videotaped and relevant parameters were analysed with the tracking software ANY-maze version 4.30 (Stoelting, Wood Dale, Ill., USA). Native NPS (1 μg/μL) or vehicle (Ringer solution) were administered intranasally to the alert mouse as described above (total volume: 14 μL). Mice were tested 30 min and 4 hrs after intranasal administration of first drop. Animals were sacrificed 24 hrs after treatment and prefrontal cortex and bilateral hippocampi were prepared immediately and shock-frozen in methylbutane.
(§4) After having ascertained that nasally administered NPS reaches its target cells, anxiolytic effects of NPS were established for this transnasal delivery method. For this purpose, nasally 6.36 nmol NPS per mouse was administered to two mouse strains, Bl6 and HAB (high anxiety behaviour) mice. HAB animals, a mouse strain inbred for pathologically high anxiety, were chosen together with Bl6 mice to allow differentiation between the temporary condition of state anxiety and the general condition of trait anxiety (Bunck et al., 2009; Kromer et al., 2005). To accurately characterise the anxiety-relieving properties of NPS in these two mouse strains, three standardised behavioural assays measuring anxiolytic effects at two different time points after intranasal NPS administration were performed. In each test, the effects of intranasal NPS versus vehicle treatment on both anxiety- and locomotion-related indices were examined.

Bl6 and HAB mice [3] = assay: Open field after intranasal NPS; assay type: in vivo, mouse
Protocol: as §3, §4

C57BL/6N mice [4] = assay: Dark-light test after bilateral NPS injection into CA1 of the VH; assay type: in vivo, mouse; conditions: 0.1 nmol NPS each side into CA1 of VH, 30 min
Protocol: as §1, §2

[5] = system: Cy3-NPS uptake in mouse brain; assay: Cy3-NPS uptake after ICV pre-injection of native NPS; assay type: in vivo; conditions: native NPS at 5 fold concentration, 10 min prior to ICV Cy3-NPS (0.2 nmol per mouse)
Protocol: The mice were sacrificed 30 min post-injection.
To clarify the mechanism of intracellular Cy3-NPS uptake, native, i.e. unlabeled, NPS at 5 fold concentration was injected unilaterally 10 min prior to ICV injection of Cy3-NPS (0.2 nmol per mouse). […] This points towards a receptor-mediated uptake mechanism, since, as shown for other neuropeptides (cf. Grady et al., 1996; Hubbard et al., 2009) pre-treatment with unlabeled agonists leads to receptor saturation, thereby antagonising the uptake of labelled agonist (here Cy3-NPS).

[6] = Bl6 and HAB mice, intranasal 6.36 nmol per mouse, 30 min

## neuropeptide S (SFRNGVGSGVKKTSFRRAKQ; Neuropeptide S; UniProt P0C0P7 70-89, looked up) [NPS, peptide agonist of neuropeptide S receptor (NPSR); native NPS, rat, from Bachem]
C57BL/6N mice [1]
  distance traveled / locomotion in the open field: did not affect locomotion; also recorded: not changed
Bl6 and HAB mice [2]; [6]
  behavioural differences versus vehicle in EPM: no behavioural differences
Bl6 and HAB mice [2]; Bl6 mice, intranasal, 4 hrs
  time on the open arms: significantly increased
  total number of entries: no difference
Bl6 and HAB mice [2]; HAB mice, intranasal, 4 hrs
  any parameter tested in the EPM: no differences
Bl6 and HAB mice [3]; [6]
  behavioural differences versus vehicle in open field: no behavioural differences
Bl6 and HAB mice [3]; Bl6 mice, intranasal, 4 hrs
  any parameter examined in the open field: no effect
Bl6 and HAB mice [3]; HAB mice, intranasal, 4 hrs
  any parameter tested in the open field: no differences
C57BL/6N mice [4]
  anxiety- and locomotion-related behaviour in the dark-light test: did not affect locomotion; also recorded: not altered
[5]
  effect of pre-injection on Cy3-NPS uptake: reduced Cy3-NPS uptake throughout the brain

Reference: patent publication US20160279204A1, “PEPTIDES AND PHARMACEUTICAL COMPOSITIONS FOR USE IN THE TREATMENT BY NASAL ADMINISTRATION OF PATIENTS SUFFERING FROM ANXIETY AND SLEEP DISORDERS” (MAX-PLANCK-GESELLSCHAFT ZUR FÖRDERUNG DER WISSENSCHAFT E.V., priority 2011, published 2016)
